Among the test systems are ACHN renal; HS 578T breast; MCF7 breast; RPMI-8226 leukemia; SN12C renal; SNB-75 CNS; SR leukemia; UACC-62 melanoma; HCC-2998 colon; BT-549 breast.
What all share (test): growth of human tumour cells (NCI), 48 h

Where “and” joins values, the source holds several entries; their conditions need not be identical. Equal entries are not always repeated.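 1) Cells in 96-well plates. 2) Compound, 48 h, 5 concentrations. 3) Linear interpolation between surrounding doses. 4) Unreached endpoint = highest concentration. The concentration for 50% growth inhibition is given as GI50. TGI: concentration producing complete growth inhibition.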 Bounds are passed on as bounds.

Consider `COc1cc2c(cc1O)CCN[C@@]21CS[C@H]2c3c(OC(C)=O)c(C)c4c(c3C(COC1=O)N1C2C2NC(Cc3cc(C)c(OC)c(O)c32)[C@@H]1O)OCO4` (some centres not stated), for which the TGI in the test on ACHN renal is 12.9 µM and 2e-06 µg/mL and 0.0045 µg/mL; with HS 578T breast, 0.302 µM; in the test with MCF7 breast, 10.5 µM; in the test with RPMI-8226 leukemia, > 100 µM and 6.4e-07 µg/mL; in the test with SN12C renal, 4.8 ng/mL; in the test on UACC-62 melanoma, 4.5 ng/mL. Besides, the GI50 in the test on SN12C renal, in the test on SNB-75 CNS, in the test on SR leukemia and in the test with UACC-62 melanoma was 4.5 ng/mL throughout.

Consider `C=C(C)[C@@H]1CC[C@]2(C(=O)O)CC[C@]3(C)[C@H](CC[C@@H]4[C@@]5(C)CCC(N)C(C)(C)[C@@H]5CC[C@]43C)[C@@H]12` (some centres not stated), for which the GI50 is 2.2 µM in the test on ACHN renal; 2.48 µM with HS 578T breast; 2.04 µM in the test on RPMI-8226 leukemia; 1.78 µM in the test with SN12C renal; 1.39 µM in the test on SNB-75 CNS; 1.92 µM in the test on UACC-62 melanoma. The TGI in the test on ACHN renal is 5.32 µM; with HS 578T breast, 5.38 µM; in the test on RPMI-8226 leukemia, 5.21 µM; in the test with SN12C renal, 3.35 µM; in the test with SNB-75 CNS it was 2.72 µM; in the test on UACC-62 melanoma, 3.55 µM.

Consider `CC(=O)OC1(C(C)=O)CC2(c3ccccc3)OC1(c1ccccc1)c1ccccc12` (configuration not stated), for which the TGI was > 100 µM in the test on ACHN renal; > 100 µM in the test with HCC-2998 colon; 96.8 µM with RPMI-8226 leukemia; > 100 µM in the test on SN12C renal; > 100 µM in the test with SNB-75 CNS; > 100 µM with SR leukemia. This compound also displayed a TGI in the test with UACC-62 melanoma of 43.8 µM.

Take `N#C/C(=C/c1ccc([N+](=O)[O-])o1)c1ccccc1`: the TGI with ACHN renal, in the test with HCC-2998 colon, in the test with RPMI-8226 leukemia, in the test on SN12C renal, with SNB-75 CNS and in the test on SR leukemia was > 100 µM throughout. In the test on UACC-62 melanoma, the TGI was > 100 µM.

Consider `Nc1nc(SCC#CCCl)c2[nH]cnc2n1`, for which the GI50 was 3.7 µM in the test on ACHN renal; 5.85 µM in the test with HCC-2998 colon; 3.89 µM with HS 578T breast; 4.12 µM in the test with MCF7 breast; 6.86 µM in the test on RPMI-8226 leukemia; 4.75 µM with SN12C renal. Besides, the figures for the GI50 in the test with SNB-75 CNS, in the test with SR leukemia and in the test with UACC-62 melanoma were 4.23 µM, 3.15 µM and 5.46 µM, respectively. The TGI with ACHN renal amounted to 15 µM; in the test with HCC-2998 colon, 18.9 µM; with HS 578T breast it was 56.6 µM; in the test with MCF7 breast, 16.3 µM; with RPMI-8226 leukemia, 48.8 µM; in the test with SN12C renal it was 18 µM. Moreover, the results for the TGI with SNB-75 CNS, in the test on SR leukemia and with UACC-62 melanoma were 17.5 µM, 18.9 µM and 18.1 µM, respectively.

On to `COc1ccccc1NC(=O)c1sc2ncn(CCOc3ccccc3)c(=O)c2c1C`, for which the GI50 is 6.01 µM in the test with ACHN renal; 26.7 µM in the test with BT-549 breast; 1.37 µM in the test with HS 578T breast; 3.55 µM in the test on MCF7 breast; 9.2 µM in the test with RPMI-8226 leukemia; 17.2 µM in the test on SN12C renal. The GI50 in the test on SR leukemia was 0.856 µM; in the test with UACC-62 melanoma, 2.04 µM. Besides, the TGI was > 50 µM in the test on ACHN renal; > 50 µM in the test on BT-549 breast; 4.1 µM in the test on HS 578T breast; > 50 µM in the test on MCF7 breast; > 50 µM with RPMI-8226 leukemia; > 50 µM with SN12C renal. For the same compound, the TGI with SR leukemia was 6.87 µM; in the test with UACC-62 melanoma it was > 50 µM.

Turning to `COC(=O)CC(=O)OC1C[C@@H]2CCC3C(C)(C)CCC[C@]3(C)C23CC[C@@]1(C)C3` (some centres not stated), the TGI with ACHN renal is 31.7 µM; in the test on HCC-2998 colon, 35 µM; in the test on RPMI-8226 leukemia, > 100 µM; in the test on SN12C renal it was 31.3 µM; in the test with SNB-75 CNS, 51.2 µM; in the test with SR leukemia, > 100 µM. In the test with UACC-62 melanoma, the TGI stood at 30.7 µM.

As for `NC1(C(=O)O)CCC(C(=O)O)CC1` (configuration not stated), the TGI in the test with ACHN renal, in the test with HCC-2998 colon, with RPMI-8226 leukemia, in the test with SN12C renal, in the test on SNB-75 CNS and with SR leukemia was > 100 µM throughout. Also, the TGI with UACC-62 melanoma was > 100 µM.

Regarding `CC/C(=C/c1ccc(OC)cc1)[N+](=O)[O-]`, the GI50 was 1.71 µM in the test on ACHN renal; 2.42 µM in the test on BT-549 breast; 1.89 µM with HCC-2998 colon; 3.84 µM in the test with HS 578T breast; 1.76 µM in the test with RPMI-8226 leukemia; 2.28 µM in the test on SN12C renal. The GI50 in the test with SNB-75 CNS was 2.83 µM; in the test with SR leukemia, 2.31 µM; in the test on UACC-62 melanoma it was 2.04 µM. The TGI with ACHN renal amounted to 3.21 µM; in the test with BT-549 breast, 6.42 µM; with HCC-2998 colon it was 3.42 µM; in the test with HS 578T breast it was 22.2 µM; in the test on RPMI-8226 leukemia, 5.31 µM; in the test on SN12C renal it was 5.44 µM. Also, the TGI amounted to 15 µM in the test with SNB-75 CNS, 7.65 µM with SR leukemia and 4.67 µM with UACC-62 melanoma.

In the case of `Nc1ncc(CN2CCCC2)c(-c2ccccc2O)n1`, the TGI in the test with ACHN renal, with HCC-2998 colon, with RPMI-8226 leukemia, with SN12C renal, in the test on SNB-75 CNS and in the test on SR leukemia was > 750 µM each time. The TGI in the test on UACC-62 melanoma was > 750 µM.

Take `CSCSCC(CO)NC(=O)/C=C/c1c(C)[nH]c(=O)[nH]c1=O` (configuration not stated): the TGI in the test with ACHN renal, in the test on HCC-2998 colon, in the test with RPMI-8226 leukemia, in the test with SN12C renal, in the test on SNB-75 CNS and in the test with SR leukemia was > 100 µM throughout. Further, the TGI in the test with UACC-62 melanoma is > 100 µM.

For the compound `CC1=C(C(=S)Nc2ccc(Cl)c(C(=O)OC(C)C)c2)SCCO1`, the TGI in the test with ACHN renal was 85.9 µM; in the test on BT-549 breast it was 37.8 µM; with HCC-2998 colon, 31.2 µM; in the test with HS 578T breast, 75.1 µM; in the test on MCF7 breast it was > 100 µM; with RPMI-8226 leukemia, 63.9 µM. Further, the results for the TGI in the test on SN12C renal, in the test on SNB-75 CNS and with UACC-62 melanoma were 32.9 µM, 43.7 µM and 32.6 µM, respectively.

In the case of `CCN(CC)c1ccc(N=Nc2ccc(-c3nc4cccnc4s3)cc2)cc1`, the TGI was > 100 µM in the test on ACHN renal; > 100 µM with HCC-2998 colon; > 100 µM in the test with RPMI-8226 leukemia; > 100 µM with SN12C renal; 98.9 µM with SNB-75 CNS; > 100 µM in the test with SR leukemia. Also, the TGI in the test on UACC-62 melanoma is > 100 µM.

Values taken from PubChem BioAssay (NCI).
